Consider three compounds from BindingDB's records for doi:10.1016/j.bmc.2008.02.078 (University of Tokyo, 2008).

A value given as a limit tells only on which side of the number the result lay.

Chain of Alpha-glucosidase MAL32 (P38158 whole entry): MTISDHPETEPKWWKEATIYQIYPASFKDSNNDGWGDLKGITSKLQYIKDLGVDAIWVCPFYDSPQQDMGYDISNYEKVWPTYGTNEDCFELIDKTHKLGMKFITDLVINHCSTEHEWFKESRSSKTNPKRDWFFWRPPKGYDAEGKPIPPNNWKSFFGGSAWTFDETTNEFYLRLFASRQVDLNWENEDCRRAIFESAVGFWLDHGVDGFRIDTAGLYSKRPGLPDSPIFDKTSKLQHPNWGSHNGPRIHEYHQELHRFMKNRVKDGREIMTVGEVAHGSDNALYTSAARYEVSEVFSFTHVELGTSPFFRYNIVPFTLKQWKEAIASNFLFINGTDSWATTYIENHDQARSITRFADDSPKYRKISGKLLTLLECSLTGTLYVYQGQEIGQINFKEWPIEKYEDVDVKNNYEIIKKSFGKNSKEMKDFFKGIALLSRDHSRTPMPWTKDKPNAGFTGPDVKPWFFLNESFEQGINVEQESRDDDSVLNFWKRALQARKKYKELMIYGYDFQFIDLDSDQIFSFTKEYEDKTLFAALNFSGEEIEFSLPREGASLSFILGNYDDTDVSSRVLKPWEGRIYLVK

The test deals with Alpha-glucosidase MAL32 (Saccharomyces cerevisiae (strain ATCC 204508 / S288c), UniProt P38158). Put plainly: alpha-Glucosidase Inhibition Assay. The settings on record: pH 7; 37 °C. The method, then:
The alpha-glucosidase inhibitory activity of test compounds was determined in a 96-well plate format. The reaction mixture containing enzyme and chromogenic substrate in the presence or absence of test compounds were incubated, and the amount of released p-nitrophenol was measured based on the absorbance at 405 nm. The IC50 values were calculated from the dose-response curves.
By IC50 is commonly meant the concentration needed to halve the response being measured. Read a low IC50 as greater potency in that assay. On to `COc1ccc2c(c1)CCc1ccc(cc1)Oc1cccc(c1)CCc1ccc-2c(OC)c1` [5,25-dimethoxy-14-oxapentacyclo[20.2.2.2^{10,13}.1^{15,19}.0^{2,7}]nonacosa-1(24),2(7),3,5,10,12,15,17,19(27),22,25,28-dodecaene], for which the IC50 is > 30 µM. To `COc1ccc2cc1Oc1ccc(cc1)CCc1ccccc1-c1ccc(cc1)CC2` [16-methoxy-14-oxapentacyclo[20.2.2.2^{10,13}.1^{15,19}.0^{2,7}]nonacosa-1(24),2(7),3,5,10,12,15,17,19(27),22,25,28-dodecaene] belongs > 100 µM; to `CC(C)CC[C@@H](O)[C@@H](C)[C@H]1CCC2C3CC=C4C[C@@H](O)CC[C@]4(C)C3C[C@@H](C)C21` (stereo partly drawn) [(2R,5S,14S,16R)-14-[(2S,3R)-3-hydroxy-6-methylheptan-2-yl]-2,16-dimethyltetracyclo[8.7.0.0^{2,7}.0^{11,15}]heptadec-7-en-5-ol], 100 µM.
